Data published in EPA's ToxValDB 9.5 (doi:10.2903/j.efsa.2006.69r).

Legend:
[1] = subchronic; duration: 56 days
Apis mellifera = conditions: acute, mortality
Brassica rapa = conditions: acute; duration: 21 days; seedling emergence
Canidae = conditions: oral, Dog Other, neurology
Colinus virginianus = conditions: short-term; oral; diet; reproduction
Daphnia magna = conditions: chronic/long-term; duration: 21 days
Lepomis macrochirus = conditions: acute; duration: 96 hours; mortality
Pimephales promelas = conditions: chronic/long-term; duration: 32 days
Rattus norvegicus = conditions: for LD50: acute
Aphidius rhopalosiphi = assay: LR50; higher = less toxic; conditions: not reported; mortality
[2] = short-term, oral, feed, mortality

For CNC(=O)Oc1cccc(N=CN(C)C)c1.Cl [Formetanate hydrochloride], the NOAEC [1] was 0.703 mg/L, the LD50 (Anas platyrhynchos; acute, oral, unspecified, mortality) was 11.5 mg/kg and the NOEC (Anas platyrhynchos; reproductive) was 15.6 mg/kg-day. The LC50 (Anas platyrhynchos; [2]) was 116 mg/kg-day, the NOEC (Anas platyrhynchos; [2]) was 22.7 mg/kg-day and the LD50 (Apis mellifera; dermal) was 1.02 µg/piece. The LD50 (Apis mellifera; duration: 48 hours, oral, unspecified) was 0.16 µg/piece, the NOEC (Brassica rapa) was > 500 g/ha and the NOAEL (Canidae; chronic, duration: 1 years) was 0.4 mg/kg-day. The NOAEL (Canidae; short-term, duration: 29 days) was 0.4 mg/kg-day, the NOEC (Colinus virginianus) was 15.6 mg/kg-day and the NOEC (Daphnia magna) was 0.0011 mg/L. The LC50 (Lepomis macrochirus) was 2.76 µg/mL, the NOEC (Pimephales promelas) was 0.48 mg/L and the LD50 (Rattus norvegicus; oral, F, mortality) was 14.8 mg/kg. For the same compound, the LD50 (Rattus norvegicus; oral, M/F, mortality) was 21 mg/kg, the NOEL (Rattus norvegicus; reproduction developmental, mortality) was 22.4 mg/kg-day and the NOAEL (Rattus norvegicus; short-term, duration: 28 days, oral, gavage, F, clinical chemistry) was 0.5 mg/kg-day. The LC50 (Tagia sp.; acute, duration: 14 days, mortality) was 1050 mg/kg, the NOEC (Tagia sp.; chronic/long-term) was 1.8 mg/kg and the LR50 (Aphidius rhopalosiphi) was 0.21 g/ha.
